Activity, Drug uptake and Ratio data for 11 compounds are collected here from ChEMBL document CHEMBL2429822, “Imaging probes of tau pathology” (ACS Med Chem Lett, 2013).

The target of data set [1] is Amyloid-beta precursor protein (Homo sapiens) (UniProt P05067). As to the kind of experiment: Binding affinity to human amyloid-beta plaques at 100 uM by fluorescence microscopy.
Data set [2] has as its target Microtubule-associated protein tau (Homo sapiens) (UniProt P10636). As to the kind of experiment: Binding affinity to human tau associated NFTs at 100 uM by fluorescence microscopy.
Data set [3] relates to Brain. Description: Biodistribution in C57B1/6 mouse brain at 2 MBq, iv after 2 mins by gamma-counting analysis. The data set is classed as ADME, organism-based. As to conditions: in vivo.
The subject of data set [4] is Brain. Description: Biodistribution in C57B1/6 mouse brain at 2 MBq, iv after 30 mins by gamma-counting analysis. The data set is classed as ADME, organism-based. As to conditions: in vivo, 0.5 h.
In data set [5] the test system is Brain. Description: Biodistribution in C57B1/6 mouse brain at 2 MBq, iv after 10 mins by gamma-counting analysis. The data set is classed as ADME, organism-based. As to conditions: in vivo.
Data set [6] deals with Brain. Description: Ratio of clearance in C57B1/6 mouse brain at 2 MBq after 2 mins to clearance in C57B1/6 mouse brain at 2 MBq after 30 mins. It counts as ADME, tissue-based. As to conditions: in vivo.
Data set [7] deals with Brain. Description: Biodistribution in C57B1/6 mouse brain at 2 MBq, iv after 60 mins by gamma-counting analysis. It counts as ADME, organism-based. As to conditions: in vivo, 1 h.
Data set [8] concerns the target Microtubule-associated protein tau (Homo sapiens) (UniProt P10636). As to the kind of experiment: Binding affinity to human tau associated NFTs at 1 uM by fluorescence microscopy.
The target is the same in data set [9]. Description: Binding affinity to human tau associated NFTs at 10 uM by fluorescence microscopy.
The target of data set [10] is Amyloid-beta precursor protein (Homo sapiens) (UniProt P05067). As to the kind of experiment: Binding affinity to human amyloid-beta plaques at 10 uM by fluorescence microscopy.
Data set [11] has the same target. As to the kind of experiment: Binding affinity to human amyloid-beta plaques at 1 uM by fluorescence microscopy.
Data set [12] has as its system Brain. As to the kind of experiment: Biodistribution in Wistar rat brain at 50 ug, iv after 60 mins by […] analysis. The data set is classed as ADME, organism-based. The following applies: in vivo, 1 h.
The subject of data set [13] is Brain. Description: Biodistribution in Wistar rat brain at 50 ug, iv after 10 mins by […] analysis. As to conditions: in vivo. It counts as ADME, organism-based.
In data set [14] the test system is Brain. As to the kind of experiment: Biodistribution in Wistar rat brain at 50 ug, iv after 2 mins by […] analysis. It counts as ADME, organism-based. As to conditions: in vivo.
Data set [15] has as its system Brain. Description: Ratio of clearance in Wistar rat brain at 50 ug after 2 mins to clearance in Wistar rat brain at 50 ug after 30 mins. As to conditions: in vivo. It counts as ADME, tissue-based.
In data set [16] the test system is Brain. Description: Biodistribution in Wistar rat brain at 50 ug, iv after 30 mins by […] analysis. As to conditions: in vivo, 0.5 h. It counts as ADME, organism-based.
Setting [17] is: tested as the 11C-labelled form.

The source made the active and inactive calls. The rule behind the calls is not given here.

Sequence of Amyloid-beta precursor protein (Homo sapiens) (P05067 whole entry): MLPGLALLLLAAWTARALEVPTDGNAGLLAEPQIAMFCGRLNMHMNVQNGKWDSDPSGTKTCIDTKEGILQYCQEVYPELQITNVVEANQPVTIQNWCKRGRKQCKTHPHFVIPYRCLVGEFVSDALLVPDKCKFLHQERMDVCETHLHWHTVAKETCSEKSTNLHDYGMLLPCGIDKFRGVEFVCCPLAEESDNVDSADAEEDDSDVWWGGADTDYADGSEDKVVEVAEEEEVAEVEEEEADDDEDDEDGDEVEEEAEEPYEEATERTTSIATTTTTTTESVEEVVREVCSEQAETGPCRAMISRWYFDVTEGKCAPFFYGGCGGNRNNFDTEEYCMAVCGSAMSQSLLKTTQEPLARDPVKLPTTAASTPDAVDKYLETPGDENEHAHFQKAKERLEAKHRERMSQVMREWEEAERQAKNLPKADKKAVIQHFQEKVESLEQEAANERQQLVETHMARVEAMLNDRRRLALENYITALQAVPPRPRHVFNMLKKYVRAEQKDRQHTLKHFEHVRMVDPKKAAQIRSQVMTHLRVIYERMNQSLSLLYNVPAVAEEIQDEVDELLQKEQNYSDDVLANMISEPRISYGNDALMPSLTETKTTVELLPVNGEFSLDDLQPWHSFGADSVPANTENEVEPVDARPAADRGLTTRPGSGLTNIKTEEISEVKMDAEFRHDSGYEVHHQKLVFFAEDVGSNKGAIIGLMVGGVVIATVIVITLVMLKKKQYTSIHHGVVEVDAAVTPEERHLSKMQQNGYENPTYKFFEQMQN
Sequence of Microtubule-associated protein tau (Homo sapiens) (P10636 whole entry): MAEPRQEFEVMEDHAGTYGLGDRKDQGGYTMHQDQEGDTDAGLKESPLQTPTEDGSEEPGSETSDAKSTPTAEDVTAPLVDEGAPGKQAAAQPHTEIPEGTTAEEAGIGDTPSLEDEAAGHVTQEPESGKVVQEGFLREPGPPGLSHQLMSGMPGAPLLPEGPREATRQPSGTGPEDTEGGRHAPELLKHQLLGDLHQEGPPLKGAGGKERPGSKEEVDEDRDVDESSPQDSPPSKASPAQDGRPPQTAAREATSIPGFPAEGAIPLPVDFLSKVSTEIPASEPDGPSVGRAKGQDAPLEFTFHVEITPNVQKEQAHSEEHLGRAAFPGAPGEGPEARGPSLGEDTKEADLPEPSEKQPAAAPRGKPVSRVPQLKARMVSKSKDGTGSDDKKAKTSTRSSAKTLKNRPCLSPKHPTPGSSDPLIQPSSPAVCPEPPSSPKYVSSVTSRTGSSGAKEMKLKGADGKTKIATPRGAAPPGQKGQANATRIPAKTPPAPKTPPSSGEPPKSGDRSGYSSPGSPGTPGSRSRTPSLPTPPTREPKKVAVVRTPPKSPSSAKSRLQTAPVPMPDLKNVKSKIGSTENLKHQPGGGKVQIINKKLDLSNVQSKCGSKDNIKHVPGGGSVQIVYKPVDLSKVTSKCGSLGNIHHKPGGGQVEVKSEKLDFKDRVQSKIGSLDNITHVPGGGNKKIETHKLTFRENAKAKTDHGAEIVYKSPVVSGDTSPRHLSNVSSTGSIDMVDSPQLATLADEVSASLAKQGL

For the compound `CC(C)NC(=O)c1nn(-c2ccc(OCCF)cc2)c(=O)c2c(NC(=O)OC(C)(C)C)scc12`, the result in [1] and in [2] was inactive.
Consider `CC(C)NC(=O)c1nn(-c2ccc(OCC[18F])cc2)c(=O)c2c(N)scc12`, for which the Drug uptake was found to be 6.5% in the data set on Brain [3], 2.83% in the data set with Brain [4], 3.26% in the data set on Brain [5] and 2.35% in the data set with Brain [7]. Further, the Ratio in the data set on Brain [6] came to 2.3.
Turning to `CC(C)NC(=O)c1nn(-c2ccc(OCC(O)CF)cc2)c(=O)c2c(N)scc12` (configuration not stated), the result in data set [1] and in data set [2] was inactive.
In the case of `CC(=C(C#N)C#N)c1ccc2cc(N(C)CCF)ccc2c1`, the outcome in data set [8], in data set [9], in [1], in data set [10], in [11] and in data set [2] was Active.
As for `CC(C)NC(=O)c1nn(-c2ccc([N+](=O)[O-])cc2)c(=O)c2c(N)scc12`, the outcome in [8] and in data set [10] was inactive. In addition, the result in data set [9], in data set [1] and in [2] was Active.
In the case of `CC(C)NC(=O)c1nn(-c2ccc(OCCC[18F])cc2)c(=O)c2c(N)scc12`, the Drug uptake in the data set on Brain [3] was found to be 9.84%; in the data set on Brain [4] it was 3.46%; with Brain [5], 5.77%; in the data set on Brain [7], 1.51%. In the data set on Brain [6], the Ratio is listed as 2.8.
Regarding `CC(C)NC(=O)c1nn(-c2ccc(F)cc2)c(=O)c2c(N)scc12`, the outcome in [8], in data set [9], in [10] and in data set [11] was inactive. For the same compound, the outcome in [1] and in [2] was Active.
Take `CC(C)(C)OC(=O)c1nn(-c2ccc(OCCF)cc2)c(=O)c2c(N)scc12`: the result in data set [1] and in data set [2] was inactive.
As to `CC(C)NC(=O)c1nn(-c2ccc(OCCCF)cc2)c(=O)c2c(N)scc12`, the result in data set [1] and in data set [2] was inactive.
Take `CC(C)NC(=O)c1nn(-c2ccc(OCCF)cc2)c(=O)c2c(N)scc12`: the Drug uptake with Brain [12] amounted to 0.011%; in the data set on Brain [13] it was 0.081%; with Brain [14] it was 0.28%; in the data set on Brain [16], 0.021%. In addition, the outcome in data set [8], in data set [9], in [1], in data set [10] and in [2] was Active. For the same compound, the Ratio with Brain [15] was found to be 13.3. In data set [11], the outcome was inactive.
Consider `CNc1ccc(-c2nc3ccc(O)cc3s2)cc1`, for which the result in data set [8] (setting [17]) was inactive. Further, the outcome in [9] (setting [17]), in data set [1] (setting [17]), in [10] (setting [17]), in data set [11] (setting [17]) and in data set [2] (setting [17]) was Active.
